Reference: patent US7960551B2, “Compound” (Glaxo Group Limited, priority 2007, dated 2011)
Where a name gives a salt, the structure may show the parent alone.

Test: Dynamic Vapour Sorption (DVS) assessment
Format: physicochemical
Procedure: A Dynamic Vapour Sorption (DVS) profile of Form 1 was obtained using an SMS DVS-1 with water as a reagent at 25° C. 20-30 mg of sample were placed in a glass bulb and equilibrated at 30% RH. The % RH was increased to 90% in 10% steps.

deliquescence (exposed to atmospheric moisture / DVS profile): not to be deliquescent
weight gain (hygroscopicity) (humidity range of 30% relative humidity to 90% relative humidity, water, 25° C.): less than 2.0%
sorption/desorption profile (two sorption/desorption cycles, 0-90% RH in 10% steps, 25° C.): reversible
SMILES: COc1cc(NC(=O)CCN2CCC(OC(=O)Nc3ccccc3-c3ccccc3)CC2)c(Cl)cc1CNC[C@H](O)c1ccc(O)c2[nH]c(=O)ccc12 [Form 1, Biphenyl-2-ylcarbamic Acid 1-[2-(2-Chloro-4-{[(R)-2-hydroxy-2-(8-hydroxy-2-oxo-1,2-dihydroquinolin-5-yl)ethylamino]methyl}-5-methoxyphenylcarbamoyl)-ethyl]piperidin-4-yl Ester Succinic Acid Salt (Form 1)]
